Tests used:
ΔF508-CFTR [1] = molecular target: T1, ΔF508-CFTR (Homo sapiens, UniProt P13569, DEL508-508); test: CFTR cell surface levels using HRP-tagged ΔF508-CFTR expressing CFBE cells, intrinsic corrector capacity; assay type: cell-based; parameters: % Activation: concentration or dose not given beside the values; settings: HRP-tagged ΔF508-CFTR expressing CFBE41o- cells, compound alone (intrinsic corrector capacity), 20 hours at 33° C.; for EC50: read-out: EC50
T1 construct: host or cells: CFBE41o-, doxycycline-inducible
T1 sequence (P13569 with tags, fused parts or gaps DEL508-508): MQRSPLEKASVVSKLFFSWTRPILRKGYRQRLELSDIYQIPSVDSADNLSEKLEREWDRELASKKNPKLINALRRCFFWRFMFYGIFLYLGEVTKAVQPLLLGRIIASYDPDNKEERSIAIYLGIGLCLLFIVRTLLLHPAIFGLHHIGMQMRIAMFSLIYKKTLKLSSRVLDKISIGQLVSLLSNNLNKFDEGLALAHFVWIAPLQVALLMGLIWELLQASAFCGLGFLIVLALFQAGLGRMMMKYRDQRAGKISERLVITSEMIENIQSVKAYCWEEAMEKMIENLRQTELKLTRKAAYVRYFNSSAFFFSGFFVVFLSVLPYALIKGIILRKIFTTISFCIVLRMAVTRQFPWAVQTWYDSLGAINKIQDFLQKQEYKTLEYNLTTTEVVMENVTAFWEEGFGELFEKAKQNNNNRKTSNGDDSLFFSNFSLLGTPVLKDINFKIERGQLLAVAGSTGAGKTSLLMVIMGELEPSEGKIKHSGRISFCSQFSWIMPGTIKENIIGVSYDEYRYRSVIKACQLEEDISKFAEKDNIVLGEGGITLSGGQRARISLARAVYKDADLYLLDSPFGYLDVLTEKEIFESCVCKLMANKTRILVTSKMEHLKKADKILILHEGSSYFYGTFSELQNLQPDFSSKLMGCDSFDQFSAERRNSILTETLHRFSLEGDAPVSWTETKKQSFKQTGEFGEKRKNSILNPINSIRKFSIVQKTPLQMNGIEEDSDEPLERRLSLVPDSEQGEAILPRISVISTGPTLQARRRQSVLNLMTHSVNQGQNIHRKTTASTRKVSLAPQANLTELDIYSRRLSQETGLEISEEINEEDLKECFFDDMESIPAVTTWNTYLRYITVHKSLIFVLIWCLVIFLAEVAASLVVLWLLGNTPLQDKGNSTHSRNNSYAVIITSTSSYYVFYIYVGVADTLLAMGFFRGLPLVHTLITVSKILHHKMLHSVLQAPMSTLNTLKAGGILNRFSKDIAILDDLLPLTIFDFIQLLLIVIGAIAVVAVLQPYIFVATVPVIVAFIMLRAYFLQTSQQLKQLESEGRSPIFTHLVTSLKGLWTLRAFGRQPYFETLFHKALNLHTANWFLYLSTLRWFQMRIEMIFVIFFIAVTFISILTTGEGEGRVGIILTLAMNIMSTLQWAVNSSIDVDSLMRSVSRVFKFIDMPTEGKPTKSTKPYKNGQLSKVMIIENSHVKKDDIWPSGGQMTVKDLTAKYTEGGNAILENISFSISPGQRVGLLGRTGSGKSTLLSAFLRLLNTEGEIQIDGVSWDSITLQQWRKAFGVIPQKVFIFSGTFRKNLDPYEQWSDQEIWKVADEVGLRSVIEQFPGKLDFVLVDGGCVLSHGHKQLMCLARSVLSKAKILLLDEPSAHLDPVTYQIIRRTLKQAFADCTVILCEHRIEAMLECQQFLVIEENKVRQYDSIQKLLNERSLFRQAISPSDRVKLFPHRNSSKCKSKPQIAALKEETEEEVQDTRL
Description: Measuring CFTR Cell Surface Levels Using HRP-Tagged ΔF508-CFTR Expressing CFBE Cells
The HRP-tagged ΔF508-CFTR cell assay measures the expression of CFTR-ΔF508 at the plasma membrane. CFTR-ΔF508 has a folding defect leading to absence of protein at the plasma membrane. This assay is used to evaluate the capacity of compounds to increase the expression of CFTR-ΔF508 at the plasma membrane. The CFTR-ΔF508 is tagged with HRP (horse radish peroxidase enzyme) within the ECL4 (Extracellular loop 4) of CFTR (Phuan, P.-W. et al. Synergy-based small-molecule screen using a human lung epithelial cell line yields ΔF508-CFTR correctors that augment VX-809 maximal efficacy. Mol. Pharmacol. 86, 42-51 (2014)). When HRP-tagged ΔF508-CFTR is present at the plasma membrane, the HRP enzyme activity can be measured. The amount of CFTR-ΔF508 that can be rescued to the plasma membrane is correlated with the amount of functional enzyme that can be measured.
There are several ways to measure the capacity of compounds to rescue CFTR-ΔF508 to the plasma membrane; either compounds are evaluated on their own and the impact on plasma membrane levels is measured or compounds are evaluated in combination with a co-corrector, i.e. a compound that rescues CFTR-ΔF508 to the plasma membrane but rescue can be enhanced by addition of compounds due to a complementary mode of action.
Activity of Compounds for their Intrinsic Corrector Capacity:
For this purpose doxycycline-inducible ΔF508-CFTR-HRP expressing CFBE4lo− cells (obtained from Gergely Lukacs, McGill University) were maintained in MEM (Gibco; 31095) supplemented with 10% fetal bovine serum (Hyclone; SV30160.03) under puromycin (3 μg/mL) and G418 selection (0.2 mg/mL). For compound testing, cells were seeded at 4000 cells/well in white 384-well plates (Greiner; 781080) in 50 μL medium containing 0.5 μg/mL doxycycline and incubated for 68 hours at 37° C., 5% CO2. On day four, […] compounds diluted in PBS were added to the plates at a final DMSO concentration of 0.1%. All compound plates contained negative controls (DMSO) and positive controls ([…] corrector, 3-[(2R,4R)-4-({[1-(2,2-difluoro-1,3-benzodioxol-5-yl)cyclopropyl]carbonyl}amino)-7-methoxy-3,4-dihydro-2H-chromen-2-yl]benzoic acid). Cell plates were incubated at 33° C., 5% CO2 for 20 hours. On day five, the cells were washed five times with phosphate-buffered saline, and HRP activity was assayed by the addition of 50 μL/well of HRP substrate (SuperSignal™ West Pico Chemiluminescent Substrate, Thermo Scientific; 34080). After incubation for 15 minutes in the dark, chemiluminescence was measured using a plate reader (EnVision®, Perkin Elmer). Raw data were normalized to percentage activity values using the equation: 100×(Sample−Negative control)/(Positive control−Negative Control).

ΔF508-CFTR [2] = molecular target: T1, ΔF508-CFTR; test: CFTR cell surface levels using HRP-tagged ΔF508-CFTR expressing CFBE cells, in the presence of a co-corrector; assay type: cell-based; settings: HRP-tagged ΔF508-CFTR CFBE cells, in the presence of 3 μM co-corrector; for EC50: read-out: EC50
Method in brief: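 Chemiluminescent read-out of surface HRP (15 min, dark) after PBS washes. Activity is normalized as 100×(sample−DMSO)/(3 μM co-corrector alone−DMSO).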

| Compound | % Activation (ΔF508-CFTR [1]) [%] | EC50 (ΔF508-CFTR [1]) [nM] | % Activation (ΔF508-CFTR [2]) [%] | EC50 (ΔF508-CFTR [2]) [nM] |
| --- | --- | --- | --- | --- |
| Cc1nn(-c2ccc(F)cc2F)c2nc(C(=O)NS(C)(=O)=O)cc(-c3ccc(N4CCOCC4)cc3)c12 [Compound 21, 1-(2,4-difluorophenyl)-N-(methanesulfonyl)-3-methyl-4-[4-(morpholin-4-yl)phenyl]-1H-pyrazolo[3,4-b]pyridine-6-carboxamide] | 264.25 | 685 | 440.1 | 525 |
| CC(C)c1nn(C2CCCCC2)c2nc(C(=O)NS(C)(=O)=O)cc(-c3ccc(N(C)C)nc3)c12 [Compound 22, 1-cyclohexyl-4-[6-(dimethylamino)pyridin-3-yl]-N-(methanesulfonyl)-3-(propan-2-yl)-1H-pyrazolo[3,4-b]pyridine-6-carboxamide] | 161.5 | 732 | 371.55 | 503 |
| Cc1nn(-c2cc(F)cc(F)c2)c2nc(C(=O)NS(C)(=O)=O)cc(-c3ccc(N4CCOCC4)cc3)c12 [Compound 23, 1-(3,5-difluorophenyl)-N-(methanesulfonyl)-3-methyl-4-[4-(morpholin-4-yl)phenyl]-1H-pyrazolo[3,4-b]pyridine-6-carboxamide] | 287.3 | 883 | 468.85 | 573 |
| Cc1cc(C)cc(-n2nc(C)c3c(-c4ccc(N5CCOCC5)cc4)cc(C(=O)NS(C)(=O)=O)nc32)c1 [Compound 24, 1-(3,5-dimethylphenyl)-N-(methanesulfonyl)-3-methyl-4-[4-(morpholin-4-yl)phenyl]-1H-pyrazolo[3,4-b]pyridine-6-carboxamide] | 193.75 | 888 | 380.5 | 744 |
| Cc1nn(-c2ccc(F)c(F)c2)c2nc(C(=O)NS(C)(=O)=O)cc(-c3ccc(N4CCOCC4)cc3)c12 [Compound 25, 1-(3,4-difluorophenyl)-N-(methanesulfonyl)-3-methyl-4-[4-(morpholin-4-yl)phenyl]-1H-pyrazolo[3,4-b]pyridine-6-carboxamide] | 247.23 | 997 | 437.17 | 640 |
| Cc1nn(-c2cccc(C(F)(F)F)c2)c2nc(C(=O)NS(C)(=O)=O)cc(-c3ccc(N(C)C)cc3)c12 [Compound 26, 4-[4-(dimethylamino)phenyl]-N-(methanesulfonyl)-3-methyl-1-[3-(trifluoromethyl)phenyl]-1H-pyrazolo[3,4-b]pyridine-6-carboxamide] | 202.25 | 1850 | 449.7 | 1550 |
| COc1ccc(-c2cc(C(=O)NS(C)(=O)=O)nc3c2c(C)nn3-c2cccc(C)c2)cc1 [Compound 27, N-(methanesulfonyl)-4-(4-methoxyphenyl)-3-methyl-1-(3-methylphenyl)-1H-pyrazolo[3,4-b]pyridine-6-carboxamide] | 145.5 | 1220 | 365.2 | 714 |
| CCS(=O)(=O)NC(=O)c1cc(-c2ccc(OC)cc2)c2c(C)nn(-c3cccc(C)c3)c2n1 [Compound 28, N-(ethanesulfonyl)-4-(4-methoxyphenyl)-3-methyl-1-(3-methylphenyl)-1H-pyrazolo[3,4-b]pyridine-6-carboxamide] | 149.7 | 1220 | 354.45 | 942 |
| CC(C)c1nn(-c2cccc(N3CCOCC3)c2)c2nc(C(=O)NS(C)(=O)=O)cc(-c3cnc(N(C)C)nc3)c12 [Compound 29, 4-[2-(dimethylamino)pyrimidin-5-yl]-N-(methanesulfonyl)-1-[3-(morpholin-4-yl)phenyl]-3-(propan-2-yl)-1H-pyrazolo[3,4-b]pyridine-6-carboxamide] | 328.4 | 645 | 591.4 | 824 |
| CC(C)c1nn(-c2cccc(N3CCOCC3)c2)c2nc(C(=O)NS(C)(=O)=O)cc(-c3ccc(N(C)C)nc3)c12 [Compound 31, 4-[6-(dimethylamino)pyridin-3-yl]-N-(methanesulfonyl)-1-[3-(morpholin-4-yl)phenyl]-3-(propan-2-yl)-1H-pyrazolo[3,4-b]pyridine-6-carboxamide] | 203.4 | 318 | 423.27 | 204 |
| CCS(=O)(=O)NC(=O)c1cc(-c2ccc(N(C)C)nc2)c2c(C(C)C)nn(-c3cccc(N4CCOCC4)c3)c2n1 [Compound 32, 4-[6-(dimethylamino)pyridin-3-yl]-N-(ethanesulfonyl)-1-[3-(morpholin-4-yl)phenyl]-3-(propan-2-yl)-1H-pyrazolo[3,4-b]pyridine-6-carboxamide] | 277.65 | 372 | 526 | 234 |
| Cc1nn(-c2ccccc2)c2nc(C(=O)NS(C)(=O)=O)cc(-c3ccc(N(C)C)cc3)c12 [Compound 33, 4-[4-(dimethylamino)phenyl]-N-(methanesulfonyl)-3-methyl-1-phenyl-1H-pyrazolo[3,4-b]pyridine-6-carboxamide] | 109 | 2580 | 315.6 | 471 |
| CCS(=O)(=O)NC(=O)c1cc(-c2ccc(N3CCOCC3)nc2)c2c(C(C)C)nn(-c3ccccc3)c2n1 [Compound 35, N-(ethanesulfonyl)-4-[6-(morpholin-4-yl)pyridin-3-yl]-1-phenyl-3-(propan-2-yl)-1H-pyrazolo[3,4-b]pyridine-6-carboxamide] | 265.23 | 542 | 509.7 | 348 |
| COC1CN(c2cccc(-n3nc(C(C)C)c4c(-c5ccc(N6CCOCC6)cc5)cc(C(=O)NS(C)(=O)=O)nc43)c2)C1 [Compound 36, N-(methanesulfonyl)-1-[3-(3-methoxyazetidin-1-yl)phenyl]-4-[4-(morpholin-4-yl)phenyl]-3-(propan-2-yl)-1H-pyrazolo[3,4-b]pyridine-6-carboxamide] | 384.57 | 416 | 572.93 | 246 |
| Cc1nn(-c2ccccc2)c2nc(C(=O)NS(C)(=O)=O)cc(-c3ccc(N4CCOCC4)nc3)c12 [Compound 37, N-(methanesulfonyl)-3-methyl-4-[6-(morpholin-4-yl)pyridin-3-yl]-1-phenyl-1H-pyrazolo[3,4-b]pyridine-6-carboxamide] | 222.85 | 1660 | 457.25 | 1160 |
| CC(C)c1nn(C2CCC(F)(F)CC2)c2nc(C(=O)NS(C)(=O)=O)cc(-c3ccc(N4CCOCC4)cc3)c12 [Compound 38, 1-(4,4-difluorocyclohexyl)-N-(methanesulfonyl)-4-[4-(morpholin-4-yl)phenyl]-3-(propan-2-yl)-1H-pyrazolo[3,4-b]pyridine-6-carboxamide] | 182 | 850 | 447.7 | 581 |
| CC(C)c1nn(C2CCCOC2)c2nc(C(=O)NS(C)(=O)=O)cc(-c3ccc(N4CCOCC4)cc3)c12 (centres unmarked) [Compound 39, N-(methanesulfonyl)-4-[4-(morpholin-4-yl)phenyl]-1-(oxan-3-yl)-3-(propan-2-yl)-1H-pyrazolo[3,4-b]pyridine-6-carboxamide] | 143.4 | 838 | 378.63 | 508 |
